Data from article PMC9027532, “Preclinical Pharmacokinetic Studies of a Novel Diuretic Inhibiting Urea Transporters” (Molecules, 2022).
Several values for one entry are separate records, joined by “and”; a condition that tells them apart may be missing. Identical values can stand only once. Like-named read-outs stand apart in the source and are kept apart here.

Columns and labels:
UT-B [1] = tested on: UT-B; design: method as in PMID 34601246; settings: rat; read-out: inhibitory effect on UT-B; cited from earlier work
[2] = Plasma protein binding by equilibrium dialysis, rat plasma; type: in vitro ADME, SD rats
Experimental: (§1) The plasma protein binding (PPB) and blood plasma ratio (BPR) are crucial parameters influencing the drug distribution and elimination in plasma. The PPB profile of 25a was evaluated by equilibrium dialysis, a classic method to assess the interactions of small molecules with proteins. The PPB of 25a was tested at 50, 500, and 2500 ng/mL (Table 7). […] When considering the allometric scaling of PK parameters, the species difference of protein binding between humans and rats should be considered.
(§2) The plasma protein binding (PPB) ratio of 25a was assessed via equilibrium dialysis in SD rats and human plasma. Four hundred microliters of plasma containing 50, 500, or 2500 ng/mL 25a were loaded into the dialysis bags (plasma side), and the bags were placed into tubes containing 4 mL of the dialysis buffer (buffer side). The tubes were then rotated at approximately 100 rpm in a humidified incubator with 5% CO2 at 37 ± 1 °C for 5 h.
(§3) After the 5 h dialysis, aliquots of 50 μL samples were taken from both the buffer and the plasma sides. An equal volume of the opposite blank matrix (buffer or plasma) was added to each sample to reach a final volume of 100 μL with a volume ratio of plasma to dialysis buffer at 1:1 (v/v). All samples were further processed by adding 600 μL of stop solution (containing 10 ng/mL IS) to precipitate protein for LC–MS/MS analysis. The PPB ratio (%) was calculated by PPB% = 100% × (1 − Conc.buffer side/Conc.plasma side).

[3] = Excretion experiment in rats (urine, feces); type: in vivo, SD rats; settings: single oral dose 100 mg/kg
Experimental: (§4) The cumulative excretion ratios of unchanged 25a in the urine, feces, and bile of rats after a single oral dose at 100 mg/kg were 0.14% ± 0.05%, 3.16% ± 0.96%, and 0.018% ± 0.006%, respectively (Figure 6 and Tables S5–S7). […] Further phenotyping and metabolite identification studies should be conducted to elucidate the major elimination forms of 25a in the future.
(§5) Four SD rats were adapted in metabolic cages for 3 days in advance and then administrated with 25a at 100 mg/kg orally. Feces and urine were collected and weighed at 0–6 h, 6–12 h, […], 24–36 h, 36–48 h, 48–60 h, and 60–72 h after administration. Parallelly, four SD rats received bile duct cannulation and were given a single dose of 25a at 100 mg/kg orally. Bile was collected and weighed at 0–2 h, 0–4 h, 0–6 h, 0–8 h, 0–10 h, 0–12 h, 0–24 h, 0–36 h, and 0–48 h after administration. All samples were stored at −80 °C until analysis.

[4] = Plasma protein binding by equilibrium dialysis, human plasma; type: in vitro ADME; settings: human, plasma
Experimental: as §1, §2, §3

plasma protein = assay: as above; type: in vitro ADME; settings: human plasma, 50, 500, 2500 ng/mL
Experimental: as §1, §2, §3

UT-B [5] = tested on: UT-B; design: method as in PMID 34601246; settings: mice; read-out: inhibitory effect on UT-B; cited from earlier work
[6] = Excretion experiment in bile duct cannulated rats (bile); type: in vivo, SD rats; settings: single oral dose 100 mg/kg
Experimental: as §4, §5

CC(=O)Nc1ccc(NC(=O)c2ccc(C(C)=O)o2)cc1 [Compound 25a, N-(4-acetamidophenyl)-5-acetylfuran-2-carboxamide]
fraction unbound at 5 h, 50 ng/mL ([2]; SD, rat plasma, 50 ng/mL): 0.368
fraction unbound at 5 h, 500 ng/mL ([2]; SD, rat plasma, 500 ng/mL): 0.386
fraction unbound at 5 h, 2500 ng/mL ([2]; SD, rat plasma, 2500 ng/mL): 0.355
fraction unbound at 5 h ([2]; Sprague-Dawley, rat plasma, 50, 500, 2500 ng/mL, read-out: mean plasma protein binding (PPB) (converted)): ~0.4
total cumulative excretion fractions of unchanged 25a in urine, feces, and bile [3]: less than 5%
Accumulated Amount in feces ([3]; 0-6 h): 0.248 ± 0.056 mg
Accumulated Amount in urine ([3]; 0-6 h): 0.0129 ± 0.0059 mg
Concentration in feces ([3]; 0-6 h): 6547.5 ± 1407.8 ng/mL
Concentration in urine ([3]; 0-6 h): 1865.0 ± 576.4 ng/mL
cumulative excretion ratio of unchanged 25a in feces ([3]; 100 mg/kg): 3.16% and 3.16% ± 0.96%
Accumulated Amount in feces ([3]; 6-12 h): 0.565 ± 0.130 mg
Accumulated Amount in urine ([3]; 6-12 h): 0.0221 ± 0.0046 mg
Concentration in feces ([3]; 6-12 h): 9237.5 ± 2337.8 ng/mL
Concentration in urine ([3]; 6-12 h): 1696.3 ± 1,244.3 ng/mL
Accumulated Amount in feces ([3]; 12-24 h): 0.798 ± 0.309 mg
Accumulated Amount in urine ([3]; 12-24 h): 0.0305 ± 0.0066 mg
Concentration in feces ([3]; 12-24 h): 6053.3 ± 4545.2 ng/mL
Concentration in urine ([3]; 12-24 h): 869.3 ± 442.0 ng/mL
Accumulated Amount in feces ([3]; 24-36 h): 0.802 ± 0.310 mg
Accumulated Amount in urine ([3]; 24-36 h): 0.0317 ± 0.0077 mg
Concentration in feces ([3]; 24-36 h): 188.2 ± 121.9 ng/mL
Concentration in urine ([3]; 24-36 h): 132.4 ± 108.1 ng/mL
Accumulated Amount in feces ([3]; 36-48 h): 0.802 ± 0.310 mg
Accumulated Amount in urine ([3]; 36-48 h): 0.0327 ± 0.0085 mg
Concentration in feces ([3]; 36-48 h): 7.0 ± 8.8 ng/mL
Concentration in urine ([3]; 36-48 h): 104.4 ± 95.7 ng/mL
Accumulated Amount in feces ([3]; 48-60 h): 0.802 ± 0.310 mg
Accumulated Amount in urine ([3]; 48-60 h): 0.0332 ± 0.0089 mg
Concentration in feces ([3]; 48-60 h): 2.1 ± 3.1 ng/mL
Concentration in urine ([3]; 48-60 h): 49.6 ± 31.9 ng/mL
Accumulated Amount in feces ([3]; 60-72 h): 0.802 ± 0.310 mg
Accumulated Amount in urine ([3]; 60-72 h): 0.0337 ± 0.0090 mg
Concentration in feces ([3]; 60-72 h): 3.8 ± 3.8 ng/mL
Concentration in urine ([3]; 60-72 h): 32.5 ± 11.2 ng/mL
fraction unbound at 5 h, 50 ng/mL ([4]; human plasma, 50 ng/mL): 0.559
fraction unbound at 5 h, 500 ng/mL ([4]; human plasma, 500 ng/mL): 0.612
fraction unbound at 5 h, 2500 ng/mL ([4]; human plasma, 2500 ng/mL): 0.595
fraction unbound at 5 h ([4]; human plasma, 50, 500, 2500 ng/mL, read-out: mean plasma protein binding (PPB) (converted)): ~0.6
mean plasma protein binding (PPB) (plasma protein): 38.8%–44.1%
Accumulated Amount in bile ([6]; 0-2 h): 0.531 ± 0.233 µg
Concentration in bile ([6]; 0-2 h): 220.5 ± 44.4 ng/mL
Accumulated Amount in bile ([6]; 0-4 h): 1.138 ± 0.434 µg
Concentration in bile ([6]; 0-4 h): 192.3 ± 52.3 ng/mL
Accumulated Amount in bile ([6]; 0-6 h): 1.451 ± 0.481 µg
Concentration in bile ([6]; 0-6 h): 161.3 ± 55.4 ng/mL
Accumulated Amount in bile ([6]; 0-8 h): 1.783 ± 0.489 µg
Concentration in bile ([6]; 0-8 h): 169.5 ± 57.2 ng/mL
Accumulated Amount in bile ([6]; 0-10 h): 2.215 ± 0.603 µg
Concentration in bile ([6]; 0-10 h): 156.8 ± 23.8 ng/mL
Accumulated Amount in bile ([6]; 0-12 h): 2.888 ± 0.929 µg
Concentration in bile ([6]; 0-12 h): 147.3 ± 27.7 ng/mL
Accumulated Amount in bile ([6]; 0-24 h): 3.664 ± 1.010 µg
Concentration in bile ([6]; 0-24 h): 83.5 ± 19.9 ng/mL
Accumulated Amount in bile ([6]; 0-36 h): 4.113 ± 1.058 µg
Concentration in bile ([6]; 0-36 h): 40.7 ± 21.1 ng/mL
Accumulated Amount in bile ([6]; 0-48 h): 4.300 ± 1.184 µg
Concentration in bile ([6]; 0-48 h): 17.9 ± 17.1 ng/mL
cumulative excretion ratio of unchanged 25a in bile ([6]; 100 mg/kg): 0.018% and 0.018% ± 0.006%
